The values that follow come from patent US20240245639A1, “Dermal Application of Retinoic Acid Receptor Agonists for Amelioration of Hypertrophic Scar” (Northwestern University, priority 2023, published 2024).

Assay [1] relates to primary human foreskin fibroblasts. Description: RNA-seq expression profiling of Ch55 effects. Type of assay: cell-based. The conditions noted are these: 1,000 nM Ch55, 24 hours. The text has this:
We then used goseq (Young et al., 2010) to query the KEGG database with the […] signature and the TGF-β-antagonizing signature. Extraction of KEGG annotations and associated pathways enriched in the […] signature (FIG. 3D) tended to refer to either general categories (e.g. “proteasome,” “cell cycle,” “phagosome”) or categories relevant to other specific cell types (e.g. “Epithelial cell signaling in H. pylori infection,” “Collecting duct acid secretion,” “Axon guidance”). […] We next computed normalized gene expression values for the DEGs extracted from the TGF-β-antagonizing signature and overlaid Ch55-induced relative expression effects on potentially fibrosis-relevant pathways of interest using Pathview Web (Luo et al., 2017).
Purified RNA harvested from primary cultured human foreskin fibroblasts pooled from three donors underwent TruSeq stranded mRNA-seq library preparation at the Northwestern University NUSeq core facility, followed by paired-end sequencing on an Illumina HiSeq 4000. Raw FASTQ files were imported into Galaxy (Jalili et al., 2020). Reads were trimmed using Trimmomatic (Bolger et al., 2014) utilizing default parameters, prior to aligning to the human genome (hg38 construction) using HISAT2 (Kim et al., 2019). Reads were assigned to genomic features using featureCounts (Liao et al., 2014), and differential expression among groups was determined, and principal component analysis constructed, using DESeq2 (Love et al., 2014) with multiple comparison adjustment performed by the Benjamini-Hochberg correction (Benjamini and Hochberg, 1995). Differentially-expressed genes were defined as false discovery rate-adjusted (FDR) P<0.05. Pathway analysis on KEGG databases (Kanehisa and Goto, 2000) were performed using goseq (Young et al., 2010) and Pathview Web (Luo et al., 2017). Z-scores were calculated from normalized count values and used to construct heatmaps. FPKM values were estimated using Stringtie (Pertea et al., 2015). Raw RNA-sequence data are available through the National Center for Biotechnology Information Sequence Read Archive accession number PRJNA921850, the contents of which is incorporated by reference in its entirety.

For assay [2], the system named is excisional wound-induced hypertrophic scarring in the ears of New Zealand White rabbits. Description: Rabbit ear hypertrophic scar model. As to conditions: POD28; for amount of type I collagen in the dermis (Western blot, densitometry) / erythema in developed scars: intradermal; for erythema in developed scars: three injections. Type of assay: in vivo. The protocol:
Harvested scars were processed and analyzed to determine scar elevation index (SEI), a common quantitative histological measurement used to assess scar hypertrophy (FIG. 17). […] MATERIALS AND METHODS Materials […] dihydrochloride hydrate, homoharringtonine, Ch55 and panobinostat were acquired from Fisher Scientific (Waltham, MA). AZD-7762 was acquired from Selleck Chemicals (Houston, TX). For in vitro work, emetine dihydrochloride hydrate was dissolved in sterile H2O at 50 mM. Homoharringtonine was dissolved in DMSO at 10 mg/mL. Panobinostat was dissolved in DMSO at 425 μM. […] Recombinant human TGF-β1 (Sigma-Aldrich) was dissolved in sterile H2O at 50 µg/mL. All-trans-retinoic acid (Thermo Scientific) was dissolved in DMSO at 10 mM. […] All animal experiments were approved prior to initiation by the Northwestern University Institutional Animal Care and Use Committee (IACUC). Rabbit experiments were performed in female New Zealand White rabbits (Envigo, Indianapolis, IN) of mass 2.5-3 kg. The hypertrophic scar model was performed as described in previous publications (Dolivo et al., Jia et al., 2017, Xie et al., 2020). Briefly, on each ear, six full-thickness circular excisional wounds of 7-mm diameter were created down to the perichondrium using biopsy punches, and excised tissue was removed gently using forceps. Wounds were covered with Tegaderm (3M Healthcare, St. Paul, MN) and wounds were allowed to re-epithelialize until post-operative day (POD) 12. […] Injections were performed on POD16, POD19, and POD22. On POD28, measurements of erythema were performed using a DermaLab Combo (CyberDerm, Broomall, PA) immediately prior to euthanasia and tissue harvest. Harvested scar tissues were incubated in 0.5M ammonium thiocyanate for 20 minutes, followed by mechanical separation of dermis and epidermis using a dissecting microscope. Isolated dermal tissues were minced with a razor blade, submerged in RIPA buffer, and homogenized in the presence of 2 mm zirconia beads using a MagNA Lyser (Roche, Basel, Switzerland). Alternatively, cell culture samples were detached from the culture surface by trypsinization, collected by centrifugation, and lysed in RIPA buffer. Protein concentrations of cell culture and tissue samples were determined using a DC protein assay (BioRad). Five micrograms of total protein were loaded onto polyacrylamide gels and subjected to SDS-PAGE before transfer to nitrocellulose membranes, blocking with 5% dry milk in TBS-T, and probing with target-specific primary antibodies overnight. Species-specific secondary antibody solutions were added to membranes, and chemiluminescent signal was developed with Amersham ECL Western blotting detection reagent using X-ray film. Harvested tissues were fixed in 10% neutral-buffered formalin for 24 hours before serial dehydration and embedding in paraffin. […] Slides were deparaffinized and rehydrated in xylene and serial ethanol. Tissue samples were stained with hematoxylin and eosin (H&E), Modified Masson's Trichrome stain (Scytek, Logan, UT), or picrosirius red/fast green according to standard protocols.

In assay [3] the test system is primary human foreskin fibroblasts. As to the kind of experiment: Antagonism of fibroblast activation in presence or absence of TGF-β1 (qRT-PCR, Western blot, immunofluorescence). The class given is cell-based.
Assay [4] addresses T1, RAR-β (Homo sapiens, UniProt P10826).
T1 sequence (P10826 1-455): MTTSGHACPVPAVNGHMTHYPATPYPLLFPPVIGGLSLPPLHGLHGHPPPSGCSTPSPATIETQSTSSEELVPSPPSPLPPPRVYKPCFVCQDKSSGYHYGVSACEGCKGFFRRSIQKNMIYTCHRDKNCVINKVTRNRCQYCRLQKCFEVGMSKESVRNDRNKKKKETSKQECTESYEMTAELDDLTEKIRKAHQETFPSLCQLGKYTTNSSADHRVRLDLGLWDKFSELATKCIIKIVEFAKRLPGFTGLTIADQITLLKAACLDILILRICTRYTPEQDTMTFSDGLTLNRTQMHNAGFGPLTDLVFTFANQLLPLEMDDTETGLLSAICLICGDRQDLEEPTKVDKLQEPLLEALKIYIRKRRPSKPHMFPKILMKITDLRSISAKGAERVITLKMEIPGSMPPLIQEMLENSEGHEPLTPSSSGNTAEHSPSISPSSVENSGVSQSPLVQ
The conditions noted are these: cited from earlier work.

Setting [5] is: 1,000 nM Ch55, ± 10 ng/mL TGF-β1, 24 hour.
Where [6] appears, read: 1,000 nM Ch55, ± TGF-β1, 48 hours.

Each structure is given as a SMILES string.

For `CC(C)(C)c1cc(C(=O)/C=C/c2ccc(C(=O)O)cc2)cc(C(C)(C)C)c1` [Ch55], in assay [1], the “genes known to be targets or regulators of retinoic acid signaling (RNA-seq)” value was “broad upregulation” and the “myofibroblast marker genes (RNA-seq)” value is “significantly downregulated”. Besides, in assay [1] (RNA-seq), the “LRRC15+/Lrrc15+ signature-enriched genes significantly downregulated (number of genes)” value is reported as 67/117 and the “LRRC15+/Lrrc15+ signature-enriched genes significantly downregulated (share of genes)” value is listed as around 57%. In addition, the “collagen density of the scars (Masson's Trichrome, picrosirius red/fast green)” value in assay [2] (Ch55-treated wounds) is listed as “possible decrease”. Besides, in assay [2] (high dose (10 μg)), the “amount of type I collagen in the dermis (Western blot, densitometry)” value is listed as “sufficient to reduce” and the “erythema in developed scars” value is on record as “significantly decreased”. Also, in assay [2] (low dose (2 μg)), the “amount of type I collagen in the dermis (Western blot, densitometry)” value is listed as “sufficient to reduce” and the “erythema in developed scars” value is reported as “not statistically significant”. The “spread area per cell (brightfield microscopy)” value in assay [3] (1,000 nM Ch55, 48 hours) is “decreased”. The “deposition of collagen I (immunofluorescence)” value in assay [3] (1,000 nM Ch55, presence and absence of TGF-β1, 48 hours) is given as “greatly diminished deposition”. Besides, in assay [3] (setting [5]), the “basal and TGF-β1-induced expression of ACTA2 (qRT-PCR)” value is reported as “significantly downregulated”; the “basal and TGF-β1-induced expression of CCN2 (qRT-PCR)” value is “significantly downregulated”; the “basal and TGF-β1-induced expression of SERPINE1 (qRT-PCR)” value is on record as “significantly downregulated”. Besides, in assay [3] (setting [6]), the “collagen deposition as assessed by expression of type I collagen (Western blot)” value is “dramatically antagonized” and the “fibroblast activation as assessed by expression of α-SMA (Western blot)” value is “dramatically antagonized”. For the same compound, in assay [4], the “affinity for RAR-β” value is “high affinity”.
